Tests used:
Assay in all cases: radiometric filter-binding kinase assay
[1] = system: AKT1 (human), P31749 [S473D]
AURKA (human) = AURKA (human) (UniProt O14965); settings: compound 0.1 µM
BRSK1 (human) = BRSK1 (human) (UniProt Q8TDC3); settings: compound 0.1 µM
BRSK2 (human) = BRSK2 (human) (UniProt Q8IWQ3)
BTK (human) = BTK (human) (UniProt Q06187)
CaMK1 (human) = CaMK1 (human) (UniProt Q14012)
DYRK2 (human) = DYRK2 (human) (UniProt Q92630)
DYRK3 (human) = DYRK3 (human) (UniProt O43781)
EPHA2 (human) = EPHA2 (human) (UniProt P29317)
EPHB1 (human) = EPHB1 (human) (UniProt P54762); settings: compound 0.1 µM
EPHB2 (human) = EPHB2 (human) (UniProt P29323); settings: compound 0.1 µM
EPHB4 (human) = EPHB4 (human) (UniProt P54760); settings: compound 0.1 µM
FLT1 (human) = FLT1 (human) (UniProt P17948)
GCK (human) = GCK (human) (UniProt Q12851)
HIPK1 (human) = HIPK1 (human) (UniProt Q86Z02); settings: compound 0.1 µM
HIPK2 (human) = HIPK2 (human) (UniProt Q9H2X6)
INSR (human) = INSR (human) (UniProt P06213)
JAK2 JH1 JH2 (human) = JAK2 JH1 JH2 (human) (UniProt O60674); settings: compound 0.1 µM
MAP2K1 (human) = MAP2K1 (human) (UniProt Q02750)
MAP3K1 (human) = MAP3K1 (human) (UniProt Q13233); settings: compound 0.1 µM
MAP3K11 (human) = MAP3K11 (human) (UniProt Q16584)
MAP3K5 (human) = MAP3K5 (human) (UniProt Q99683); settings: compound 0.1 µM
MAPK10 (human) = MAPK10 (human) (UniProt P53779); settings: compound 0.1 µM
MAPK11 (human) = MAPK11 (human) (UniProt Q15759)
MAPK8 (human) = MAPK8 (human) (UniProt P45983)
MAPK9 (human) = MAPK9 (human) (UniProt P45984)
MAPKAPK5 (human) = MAPKAPK5 (human) (UniProt Q8IW41)
MARK3 (human) = MARK3 (human) (UniProt P27448)
PIM1 (human) = PIM1 (human) (UniProt P11309)
PRKCA (human) = PRKCA (human) (UniProt P17252)
[2] = system: RPS6KB1 (human), P23443 [T412E]
STK3 (human) = STK3 (human) (UniProt Q13188)
SYK (human) = SYK (human) (UniProt P43405)
TAOK1 (human) = TAOK1 (human) (UniProt Q7L7X3); settings: compound 0.1 µM
TBK1 (human) = TBK1 (human) (UniProt Q9UHD2)
YES1 (human) = YES1 (human) (UniProt P07947)

Sequence of MARK3 (human) (P27448 whole entry, looked up): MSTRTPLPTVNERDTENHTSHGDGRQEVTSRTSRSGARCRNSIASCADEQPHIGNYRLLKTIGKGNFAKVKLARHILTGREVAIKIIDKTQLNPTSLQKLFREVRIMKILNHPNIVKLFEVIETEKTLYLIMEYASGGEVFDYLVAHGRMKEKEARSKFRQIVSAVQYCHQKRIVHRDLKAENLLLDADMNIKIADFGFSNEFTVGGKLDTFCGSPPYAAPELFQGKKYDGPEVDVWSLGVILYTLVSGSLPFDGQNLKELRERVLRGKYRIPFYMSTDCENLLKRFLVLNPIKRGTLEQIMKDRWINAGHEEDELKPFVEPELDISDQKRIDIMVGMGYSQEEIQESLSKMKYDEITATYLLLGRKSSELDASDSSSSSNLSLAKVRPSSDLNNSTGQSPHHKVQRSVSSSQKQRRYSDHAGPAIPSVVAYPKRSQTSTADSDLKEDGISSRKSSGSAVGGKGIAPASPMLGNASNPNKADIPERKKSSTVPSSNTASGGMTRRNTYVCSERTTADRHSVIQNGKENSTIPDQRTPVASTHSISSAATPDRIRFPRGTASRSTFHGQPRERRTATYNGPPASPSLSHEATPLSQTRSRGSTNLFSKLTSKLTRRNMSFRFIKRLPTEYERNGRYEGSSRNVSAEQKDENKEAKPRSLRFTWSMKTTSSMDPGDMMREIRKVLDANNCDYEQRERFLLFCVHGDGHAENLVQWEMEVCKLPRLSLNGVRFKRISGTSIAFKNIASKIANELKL
Sequence of MAP2K1 (human) (Q02750 whole entry, looked up): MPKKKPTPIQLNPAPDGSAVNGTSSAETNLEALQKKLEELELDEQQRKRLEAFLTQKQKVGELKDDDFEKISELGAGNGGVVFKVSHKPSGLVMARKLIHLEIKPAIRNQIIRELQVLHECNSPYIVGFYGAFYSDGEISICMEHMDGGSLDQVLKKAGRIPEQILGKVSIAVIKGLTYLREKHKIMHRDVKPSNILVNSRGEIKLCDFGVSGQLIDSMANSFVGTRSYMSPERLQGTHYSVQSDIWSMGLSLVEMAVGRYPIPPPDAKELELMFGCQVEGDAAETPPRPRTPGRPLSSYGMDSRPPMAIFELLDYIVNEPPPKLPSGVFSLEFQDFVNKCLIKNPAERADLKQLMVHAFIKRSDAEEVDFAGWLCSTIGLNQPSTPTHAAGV
Sequence of DYRK3 (human) (O43781 whole entry, looked up): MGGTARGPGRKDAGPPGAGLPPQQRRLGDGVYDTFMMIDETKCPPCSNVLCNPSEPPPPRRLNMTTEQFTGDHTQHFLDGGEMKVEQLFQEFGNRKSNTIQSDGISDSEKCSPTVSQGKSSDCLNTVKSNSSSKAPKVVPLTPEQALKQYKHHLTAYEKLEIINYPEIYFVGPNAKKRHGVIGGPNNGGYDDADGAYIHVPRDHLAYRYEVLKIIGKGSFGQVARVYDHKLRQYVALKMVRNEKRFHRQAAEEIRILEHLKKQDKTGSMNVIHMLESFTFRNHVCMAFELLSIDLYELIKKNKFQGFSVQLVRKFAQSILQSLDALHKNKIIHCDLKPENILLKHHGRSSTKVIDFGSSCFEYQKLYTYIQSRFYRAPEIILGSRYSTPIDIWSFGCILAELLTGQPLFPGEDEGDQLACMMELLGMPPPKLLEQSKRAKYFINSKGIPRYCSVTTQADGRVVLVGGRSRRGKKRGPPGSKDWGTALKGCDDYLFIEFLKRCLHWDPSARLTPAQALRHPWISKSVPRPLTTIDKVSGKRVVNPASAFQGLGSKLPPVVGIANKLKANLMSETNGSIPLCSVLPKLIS
Sequence of STK3 (human) (Q13188 whole entry, looked up): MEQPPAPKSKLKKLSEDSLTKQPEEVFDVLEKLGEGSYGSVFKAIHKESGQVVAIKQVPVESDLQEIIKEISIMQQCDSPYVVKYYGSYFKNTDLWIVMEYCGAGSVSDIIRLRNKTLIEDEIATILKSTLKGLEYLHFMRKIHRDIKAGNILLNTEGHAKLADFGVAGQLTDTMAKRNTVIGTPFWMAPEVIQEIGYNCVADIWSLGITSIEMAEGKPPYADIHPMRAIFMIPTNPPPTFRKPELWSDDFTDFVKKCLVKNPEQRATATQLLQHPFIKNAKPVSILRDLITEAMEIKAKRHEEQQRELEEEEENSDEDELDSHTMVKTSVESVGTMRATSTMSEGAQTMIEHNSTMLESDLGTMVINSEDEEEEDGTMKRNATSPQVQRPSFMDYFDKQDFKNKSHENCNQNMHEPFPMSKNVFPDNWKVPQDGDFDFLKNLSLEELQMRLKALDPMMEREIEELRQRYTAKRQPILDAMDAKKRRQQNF
Sequence of TBK1 (human) (Q9UHD2 whole entry, looked up): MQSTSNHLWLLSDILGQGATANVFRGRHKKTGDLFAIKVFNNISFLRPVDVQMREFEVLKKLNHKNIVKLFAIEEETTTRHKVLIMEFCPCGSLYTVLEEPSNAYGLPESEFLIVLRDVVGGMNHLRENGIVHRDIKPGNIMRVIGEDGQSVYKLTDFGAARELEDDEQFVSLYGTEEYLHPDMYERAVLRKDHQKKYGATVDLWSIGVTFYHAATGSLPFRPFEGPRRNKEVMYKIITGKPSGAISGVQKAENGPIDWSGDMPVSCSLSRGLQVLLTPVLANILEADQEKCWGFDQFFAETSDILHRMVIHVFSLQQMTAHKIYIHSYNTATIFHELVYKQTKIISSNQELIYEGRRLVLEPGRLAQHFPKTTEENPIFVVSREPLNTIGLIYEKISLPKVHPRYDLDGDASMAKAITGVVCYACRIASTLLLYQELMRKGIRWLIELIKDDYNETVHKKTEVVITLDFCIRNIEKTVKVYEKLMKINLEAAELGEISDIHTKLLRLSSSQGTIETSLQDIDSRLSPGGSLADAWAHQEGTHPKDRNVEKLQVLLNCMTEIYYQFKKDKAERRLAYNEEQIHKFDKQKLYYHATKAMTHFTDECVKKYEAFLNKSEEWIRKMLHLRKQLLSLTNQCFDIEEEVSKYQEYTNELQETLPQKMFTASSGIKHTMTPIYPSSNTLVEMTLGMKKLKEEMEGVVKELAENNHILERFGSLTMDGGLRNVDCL
Sequence of AKT1 (human), P31749 [S473D] (P31749 whole entry S473D, looked up): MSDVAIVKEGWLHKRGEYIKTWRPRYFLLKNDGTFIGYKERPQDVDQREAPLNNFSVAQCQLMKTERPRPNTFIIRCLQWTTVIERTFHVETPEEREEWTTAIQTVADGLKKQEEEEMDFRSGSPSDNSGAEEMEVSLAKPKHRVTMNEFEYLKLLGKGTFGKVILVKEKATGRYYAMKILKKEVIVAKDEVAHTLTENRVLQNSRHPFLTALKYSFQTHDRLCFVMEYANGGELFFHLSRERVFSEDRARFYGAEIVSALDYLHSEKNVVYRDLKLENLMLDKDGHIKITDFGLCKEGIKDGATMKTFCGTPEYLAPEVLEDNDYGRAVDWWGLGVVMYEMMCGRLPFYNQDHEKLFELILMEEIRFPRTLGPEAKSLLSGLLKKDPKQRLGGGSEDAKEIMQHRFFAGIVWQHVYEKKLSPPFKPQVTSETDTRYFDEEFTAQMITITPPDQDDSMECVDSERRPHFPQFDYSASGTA
Sequence of MAPKAPK5 (human) (Q8IW41 whole entry, looked up): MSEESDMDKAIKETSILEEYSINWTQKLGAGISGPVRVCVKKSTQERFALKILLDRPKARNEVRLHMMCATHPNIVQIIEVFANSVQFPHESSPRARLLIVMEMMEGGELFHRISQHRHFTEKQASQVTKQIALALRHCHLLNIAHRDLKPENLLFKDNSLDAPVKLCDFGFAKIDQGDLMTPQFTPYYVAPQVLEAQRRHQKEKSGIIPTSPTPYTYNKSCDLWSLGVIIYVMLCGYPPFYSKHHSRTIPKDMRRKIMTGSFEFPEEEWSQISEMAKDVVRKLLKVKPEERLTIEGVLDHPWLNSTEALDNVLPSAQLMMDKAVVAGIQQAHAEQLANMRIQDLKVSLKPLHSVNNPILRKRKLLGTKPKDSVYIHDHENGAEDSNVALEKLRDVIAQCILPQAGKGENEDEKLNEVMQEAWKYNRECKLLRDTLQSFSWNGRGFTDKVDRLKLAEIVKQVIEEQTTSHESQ
Sequence of PIM1 (human) (P11309 whole entry, looked up): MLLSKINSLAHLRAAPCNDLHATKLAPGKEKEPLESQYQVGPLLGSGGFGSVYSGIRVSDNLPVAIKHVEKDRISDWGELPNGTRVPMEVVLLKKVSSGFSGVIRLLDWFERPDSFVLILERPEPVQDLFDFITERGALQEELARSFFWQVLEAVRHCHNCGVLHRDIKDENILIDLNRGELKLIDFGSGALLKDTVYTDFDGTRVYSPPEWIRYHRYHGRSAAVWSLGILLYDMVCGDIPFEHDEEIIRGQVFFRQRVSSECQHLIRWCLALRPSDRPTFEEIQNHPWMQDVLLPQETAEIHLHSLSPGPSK
Sequence of CaMK1 (human) (Q14012 whole entry, looked up): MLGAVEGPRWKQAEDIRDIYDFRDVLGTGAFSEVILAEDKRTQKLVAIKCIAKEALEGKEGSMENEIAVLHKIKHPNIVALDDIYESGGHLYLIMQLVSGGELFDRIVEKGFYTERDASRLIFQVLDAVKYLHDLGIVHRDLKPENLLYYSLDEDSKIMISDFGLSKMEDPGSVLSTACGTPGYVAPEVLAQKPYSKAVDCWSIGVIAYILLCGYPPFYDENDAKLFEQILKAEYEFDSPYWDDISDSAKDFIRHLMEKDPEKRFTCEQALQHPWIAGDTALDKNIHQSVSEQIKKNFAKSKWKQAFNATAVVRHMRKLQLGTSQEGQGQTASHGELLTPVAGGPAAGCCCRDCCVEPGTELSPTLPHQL
Sequence of MAPK11 (human) (Q15759 whole entry, looked up): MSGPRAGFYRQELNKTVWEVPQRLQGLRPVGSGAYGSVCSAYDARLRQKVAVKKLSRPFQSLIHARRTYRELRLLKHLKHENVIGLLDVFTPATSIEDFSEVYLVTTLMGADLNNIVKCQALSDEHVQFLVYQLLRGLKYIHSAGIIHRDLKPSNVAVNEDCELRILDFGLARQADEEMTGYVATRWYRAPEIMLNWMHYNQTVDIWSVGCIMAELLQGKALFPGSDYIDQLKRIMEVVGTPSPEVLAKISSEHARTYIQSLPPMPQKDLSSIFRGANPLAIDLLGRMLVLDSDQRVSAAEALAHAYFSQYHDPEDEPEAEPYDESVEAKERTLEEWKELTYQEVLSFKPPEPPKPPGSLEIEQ

With `O=C(O)c1ccc(-c2c[nH]c3ncc(-c4ccccc4)cc23)cc1C1CCCC1` as the molecule, how does the residual activity ([1]; compound 0.1 µM) read?
Its residual activity is 104%.

And the residual activity ([1]; compound 1.0 µM)?
The residual activity was 72%.

What about the residual activity ([1]; compound 10.0 µM) of the same molecule?
The residual activity was 57%.

And the residual activity (AURKA (human))?
The residual activity was 78%.

What about the residual activity (BRSK1 (human)) of the same molecule?
The residual activity was 84%.

And the residual activity (BRSK2 (human); compound 0.1 µM)?
The residual activity was 86%.

What about the residual activity (BRSK2 (human); compound 1.0 µM) of the same molecule?
The residual activity was 61%.

And the residual activity (BRSK2 (human); compound 10.0 µM)?
Its residual activity is 20%.

What about the residual activity (BTK (human); compound 0.1 µM) of the same molecule?
Its residual activity is 89%.

And the residual activity (BTK (human); compound 1.0 µM)?
The residual activity was 96%.

And the residual activity (CaMK1 (human); compound 0.1 µM)?
The residual activity was 104%.

And the residual activity (CaMK1 (human); compound 1.0 µM)?
The residual activity was 99%.

What about the residual activity (CaMK1 (human); compound 10.0 µM) of the same molecule?
Its residual activity is 80%.

And the residual activity (DYRK2 (human); compound 0.1 µM)?
Its residual activity is 101%.

And the residual activity (DYRK2 (human); compound 1.0 µM)?
Its residual activity is 20%.

What about the residual activity (DYRK2 (human); compound 10.0 µM) of the same molecule?
Its residual activity is 2%.

And the residual activity (DYRK3 (human); compound 0.1 µM)?
Its residual activity is 79%.

What about the residual activity (DYRK3 (human); compound 1.0 µM) of the same molecule?
Its residual activity is 57%.

What about the residual activity (DYRK3 (human); compound 10.0 µM) of the same molecule?
Its residual activity is 17%.

What about the residual activity (EPHA2 (human); compound 0.1 µM) of the same molecule?
Its residual activity is 92%.

What about the residual activity (EPHA2 (human); compound 1.0 µM) of the same molecule?
Its residual activity is 97%.

And the residual activity (EPHA2 (human); compound 10.0 µM)?
The residual activity was 85%.

And the residual activity (EPHB1 (human))?
Its residual activity is 94%.

And the residual activity (EPHB2 (human))?
Its residual activity is 86%.

What about the residual activity (EPHB4 (human)) of the same molecule?
The residual activity was 122%.

And the residual activity (FLT1 (human); compound 0.1 µM)?
The residual activity was 98%.

What about the residual activity (FLT1 (human); compound 1.0 µM) of the same molecule?
The residual activity was 63%.

And the residual activity (FLT1 (human); compound 10.0 µM)?
The residual activity was 15%.

What about the residual activity (GCK (human); compound 0.1 µM) of the same molecule?
The residual activity was 8%.

And the residual activity (GCK (human); compound 1.0 µM)?
The residual activity was 3%.

What about the residual activity (GCK (human); compound 10.0 µM) of the same molecule?
The residual activity was 1%.

And the residual activity (HIPK1 (human))?
The residual activity was 99%.

What about the residual activity (HIPK2 (human); compound 0.1 µM) of the same molecule?
The residual activity was 70%.

What about the residual activity (HIPK2 (human); compound 1.0 µM) of the same molecule?
Its residual activity is 58%.

What about the residual activity (HIPK2 (human); compound 10.0 µM) of the same molecule?
The residual activity was 15%.

And the residual activity (INSR (human); compound 0.1 µM)?
The residual activity was 111%.

And the residual activity (INSR (human); compound 1.0 µM)?
Its residual activity is 100%.

And the residual activity (INSR (human); compound 10.0 µM)?
Its residual activity is 68%.

What about the residual activity (JAK2 JH1 JH2 (human)) of the same molecule?
The residual activity was 24%.

And the residual activity (MAP2K1 (human); compound 0.1 µM)?
Its residual activity is 105%.

And the residual activity (MAP2K1 (human); compound 1.0 µM)?
Its residual activity is 34%.

What about the residual activity (MAP2K1 (human); compound 10.0 µM) of the same molecule?
The residual activity was 12%.

And the residual activity (MAP3K1 (human))?
The residual activity was 92%.

And the residual activity (MAP3K11 (human); compound 0.1 µM)?
Its residual activity is 75%.

What about the residual activity (MAP3K11 (human); compound 1.0 µM) of the same molecule?
Its residual activity is 33%.

What about the residual activity (MAP3K11 (human); compound 10.0 µM) of the same molecule?
The residual activity was 5%.

What about the residual activity (MAP3K5 (human)) of the same molecule?
The residual activity was 100%.

And the residual activity (MAPK10 (human))?
The residual activity was 73%.

And the residual activity (MAPK11 (human); compound 0.1 µM)?
The residual activity was 109%.

What about the residual activity (MAPK11 (human); compound 1.0 µM) of the same molecule?
Its residual activity is 112%.

And the residual activity (MAPK11 (human); compound 10.0 µM)?
The residual activity was 71%.

And the residual activity (MAPK8 (human); compound 0.1 µM)?
Its residual activity is 81%.

What about the residual activity (MAPK8 (human); compound 1.0 µM) of the same molecule?
Its residual activity is 74%.

What about the residual activity (MAPK8 (human); compound 10.0 µM) of the same molecule?
The residual activity was 39%.

What about the residual activity (MAPK9 (human); compound 0.1 µM) of the same molecule?
Its residual activity is 80%.

And the residual activity (MAPK9 (human); compound 1.0 µM)?
Its residual activity is 46%.

What about the residual activity (MAPK9 (human); compound 10.0 µM) of the same molecule?
Its residual activity is 9%.

And the residual activity (MAPKAPK5 (human); compound 0.1 µM)?
Its residual activity is 107%.

And the residual activity (MAPKAPK5 (human); compound 1.0 µM)?
Its residual activity is 77%.

And the residual activity (MAPKAPK5 (human); compound 10.0 µM)?
Its residual activity is 73%.

What about the residual activity (MARK3 (human); compound 0.1 µM) of the same molecule?
The residual activity was 89%.

What about the residual activity (MARK3 (human); compound 1.0 µM) of the same molecule?
The residual activity was 60%.

And the residual activity (MARK3 (human); compound 10.0 µM)?
Its residual activity is 29%.

And the residual activity (PIM1 (human); compound 0.1 µM)?
Its residual activity is 91%.

What about the residual activity (PIM1 (human); compound 1.0 µM) of the same molecule?
Its residual activity is 62%.

And the residual activity (PIM1 (human); compound 10.0 µM)?
The residual activity was 26%.

What about the residual activity (PRKCA (human); compound 0.1 µM) of the same molecule?
The residual activity was 100%.

And the residual activity (PRKCA (human); compound 1.0 µM)?
The residual activity was 61%.

What about the residual activity (PRKCA (human); compound 10.0 µM) of the same molecule?
The residual activity was 33%.

What about the residual activity ([2]; compound 0.1 µM) of the same molecule?
The residual activity was 100%.

What about the residual activity ([2]; compound 1.0 µM) of the same molecule?
Its residual activity is 74%.

And the residual activity ([2]; compound 10.0 µM)?
Its residual activity is 24%.

And the residual activity (STK3 (human); compound 0.1 µM)?
Its residual activity is 68%.

What about the residual activity (STK3 (human); compound 1.0 µM) of the same molecule?
The residual activity was 22%.

And the residual activity (STK3 (human); compound 10.0 µM)?
Its residual activity is 4%.

And the residual activity (SYK (human); compound 0.1 µM)?
Its residual activity is 99%.

What about the residual activity (SYK (human); compound 1.0 µM) of the same molecule?
The residual activity was 66%.

And the residual activity (SYK (human); compound 10.0 µM)?
Its residual activity is 12%.

And the residual activity (TAOK1 (human))?
Its residual activity is 98%.

What about the residual activity (TBK1 (human); compound 0.1 µM) of the same molecule?
The residual activity was 86%.

What about the residual activity (TBK1 (human); compound 1.0 µM) of the same molecule?
Its residual activity is 70%.

What about the residual activity (TBK1 (human); compound 10.0 µM) of the same molecule?
Its residual activity is 27%.

And the residual activity (YES1 (human); compound 0.1 µM)?
Its residual activity is 105%.

What about the residual activity (YES1 (human); compound 1.0 µM) of the same molecule?
The residual activity was 93%.

What about the residual activity (YES1 (human); compound 10.0 µM) of the same molecule?
The residual activity was 42%.
